Like-named read-outs stand apart in the source and are kept apart here.
How the values were obtained:
[1] = Kamiya et al. 2002; read-out: cytotoxicity CC50; cited from earlier work
[2] = after MCC-478, phase I clinical trial, Chan et al. 2005; cited from earlier work
[3] = test system: liver damage in mice caused by D-aminogalactose; type: in vivo, Kunmin mice; conditions: serum, D-aminogalactose 750 mg/kg model, 0.2 mmol oral twice, 24 hours after second administration
Procedure: Kunmin mice (20 g) were grouped randomly (8/group). 0.2 mmol of a compound to be tested was orally administered; after 2 hours post-dosing, D-aminogalactose was intraperitoneally injected at a dose of 750 mg/kg to prepare a liver damage model, and the normal saline was subcutaneously injected as a normal control group. After modeling for 12 hours, 0.2 mmol of the compound to be tested was orally administrated again. After 24 hours from the second administration, blood samples were collected to take serum specimen so as to determine ALT, AST.

[4] = test system: liver damage in mice caused by CCl4; type: in vivo, Kunmin mice; conditions: serum, CCl4 model, 0.2 mmol oral twice, 24 hours after second administration
Procedure: Kunmin mice (20 g) were grouped randomly (8/group). 0.2 mmol of a compound to be tested was orally administered; after 1 hour post-dosing, a 0.1% peanut oil solution of CCl4 was subcutaneously injected (10 mL/kg), to prepare a liver damage model; the normal saline was injected as a normal control group. After modeling for 12 hours, 0.2 mmol of the compound to be tested was orally administrated again. After 24 hours from the second administration, blood samples were collected to take serum specimen so as to determine ALT, AST.

[5] = Evaluation of liver targeting property (active drug in liver and blood, HPLC-MS/MS); type: in vivo, Balb/C mice; conditions: intragastric, dose equimolar to fosfomycin 200 mg/kg, active drug (free phosphonic or phosphoric acid)
Excerpt: Instrument: Finnigan Co. USA, TSQ Quantum-type liquid chromatography-mass spectrometry (LC/MS/MS), consisting of Finnigan Surveyor LC pump. Surveyor AS automatic sampler, electrospray ionization source (ESI) and triple tandem mass spectrometer. The control software is X calibur 1.4, Lcquan 2.0 data processing system is used for mass spectrometry data analysis. The chromatography column is Discovery ODS column (250 mm×4.6 mm, 5 μm), C18 guard column (4 mm×3.0 mm), the mobile phase is methanol-water-formic acid (10-30:90-70:0.5, V/V/V), the flow rate is 0.7 ml/min; the sample amount is 20 μL; and the column temperature is room temperature.

DHBV = assay: animal or person; type: in vivo, sheldrakes; conditions: serum DHBV DNA; for inhibition in vivo at 1 mg/kg: Duck hepatitis B virus, po, 336 h, 1.0 mg/kg intragastric once a day for 14 days
Procedure: The sheldrakes infected by vertical transmission and being positive in DHBV DNA detection were grouped randomly, 5/group. Water and different doses of the compound to be tested were intragastrically administrated, respectively, once a day, for 14 days. Venous blood samples were collected pre-dosing, at day 14 of dosing and at day 7 after drug withdrawal, the serum DHBV DNA content was measured using external standard TaqMan real-time fluorescence PCR method, and the inhibition ratio was calculated, as compared to the solvent group.

HBV = assay: microbe, parasite or virus in culture; type: cell-based; conditions: Hep G 2.2.15 cells, HBV DNA in supernate at day 10 post-dosing, read-out: IC50
Procedure: At day 10 post-dosing, 100 μl supernate was taken and the content of HBV DNA was measured by the method of Quantitative PCR to calculate IC50 value.

Hep G 2.2.15 cells = assay: in vitro; type: cell-based; conditions: MTT, day 3 post-dosing
Procedure: (§1) Hep G 2.2.15 cells were inoculated in a 96-well plate (with cell number being 5.5×10^4) to continually cultivate for 3 days, new culture solutions containing different concentrations of drugs were added, and 3 wells were provided in parallel; at day 3 post-dosing, MTT was added until 7.5 mg/ml, and continued to cultivate for 2 hours, the supernate was discarded, isopropanol containing 10% […] was added, 120 μl/well, and 0.4 μl/well was further added.

in vitro = type: cell-based; conditions: human; Hep G 2.2.15 cells, MTT, day 3 post-dosing
Procedure: as §1

[6] = 25 mg/kg intragastric once a day for 14 days
[7] = 10 mg/kg intragastric once a day for 14 days

| Compound | ALT [3] | AST [3] | ALT [4] | AST [4] | Cliver/Cblood ([5]; 1 h post-dosing) | Cliver/Cblood ([5]; 6 h post-dosing) | IC50 (HBV) | CC50 (Hep G 2.2.15 cells) | also measured |
| --- | --- | --- | --- | --- | --- | --- | --- | --- | --- |
| COc1ccc(Sc2nc(N)nc3c2ncn3CCOCP(=O)(O)OCC(F)(F)F)cc1 [Compound 602074] |  |  |  |  |  |  |  |  | CC50 [1]: 548 µM |
| COc1ccc(Sc2nc(N)nc3c2ncn3CCOCP(=O)(O)O)cc1 [Compound 602076] |  |  |  |  |  |  |  |  | blood concentration relative to that of the monoester 602074 [2]: one tenth |
| CC(C)OC(=O)[C@H](C)N[P@@](=O)(CO[C@H](C)Cn1cnc2c(N)ncnc21)Oc1ccc2c(c1)OCO2 [Compound I21-a] | 379 U/L | 169 U/L | 353 U/L | 191 U/L | 8.45 | 12.02 | 0.15 µM |  | Inhibition ratio (%) Day 14 of dosing (DHBV; [6]): 70.8%; Inhibition ratio (%) day 7 after drug withdrawal (DHBV; [6]): 25.0% |
| CC(C)OC(=O)[C@H](C)N[P@](=O)(CO[C@H](C)Cn1cnc2c(N)ncnc21)Oc1ccc2c(c1)OCO2 [Compound I21-b] | 514 U/L | 268 U/L | 251 U/L | 152 U/L | 9.15 | 14.37 | 0.012 µM |  | Inhibition ratio (%) Day 14 of dosing (DHBV; [6]): 82.3%; Inhibition ratio (%) day 7 after drug withdrawal (DHBV; [6]): 39.2% |
| CC(C)OC(=O)C(C)NP(=O)(OCCOCn1cnc2c(=O)[nH]c(N)nc21)Oc1ccc2c(c1)OCO2 (centres unmarked) [Compound I27] | 713 U/L | 522 U/L | 663 U/L | 940 U/L | 11.75 | 8.02 | 0.035 µM | > 200 µM | Inhibition ratio (%) Day 14 of dosing (DHBV; [7]): 80.6%; Inhibition ratio (%) day 7 after drug withdrawal (DHBV; [7]): 10.5% |
| CC(NP(=O)(OCCOCn1cnc2c(=O)[nH]c(N)nc21)Oc1ccc2c(c1)OCO2)C(=O)OC1CCCCC1 (centres unmarked) [Compound I28] |  |  |  |  |  |  |  | > 200 µM |  |
| COC(=O)C(C)NP(=O)(OCCOCn1cnc2c(=O)[nH]c(N)nc21)Oc1ccc2c(c1)OCO2 (centres unmarked) [Compound I41] |  |  |  |  |  |  |  | > 200 µM | Inhibition ratio (%) Day 14 of dosing (DHBV; [7]): 72.5%; Inhibition ratio (%) day 7 after drug withdrawal (DHBV; [7]): 15.7% |
| CC(C)OC(=O)[C@H](C)N[P@](=O)(CO[C@H](C)Cn1cnc2c(N)ncnc21)Oc1ccccc1.O=C(O)/C=C/C(=O)O [GS-7340, 9-[(R)-2-[[(S)-[[(S)-1-(isopropoxycarbonyl)-ethyl]-amino]-phenoxylphosphonyl]-methoxyl]-propyl]-adenine fumarate, reference compound] | 1064 U/L | 1320 U/L | 2483 U/L | 2645 U/L |  |  | 0.071 µM | 94.2 µM |  |
| C=C1[C@H](CO[P@@](=O)(N[C@@H](C)C(=O)OC(C)C)Oc2ccccc2)[C@@H](O)C[C@@H]1n1cnc2c(=O)[nH]c(N)nc21 [i-5, 2-amino-1,9-dihydro-9-[(1S,3R,4S)-4-hydroxyl-3-((S)—((S)-1-isopropoxycarbonylethylamino-phenoxy-phosphoryl)-oxymethyl)-2-methylenecyclopentyl]-6H-purin-6-one, reference compound] | 1512 U/L | 1646 U/L | 551 U/L | 641 U/L |  |  |  |  | CC50 (in vitro): 193 µM; inhibition in vivo at 1 mg/kg (DHBV; read-out: Inhibition ratio (%) Day 14 of dosing): 88.9%; inhibition in vivo at 1 mg/kg (DHBV; read-out: Inhibition ratio (%) day 7 after drug withdrawal): 15.7%; IC50 (HBV; Hepatitis B virus, HepG2.2.15, 240 h): 0.012 µM |
| (benzo[1,3]dioxolan-5-yl) [5-[2-amino-5-(2-methylpropyl)-thiazol-4-yl]-furan-2-yl]-phosphonate-(1-isopropoxycarbonylethylamino)-phosphonamide [Compound I43] | 256 U/L | 517 U/L | 507 U/L | 280 U/L |  |  |  | > 200 µM |  |

Source: patent US20160115186A1, “PHOSPHORIC ACID/PHOSPHONIC ACID DERIVATIVES AND MEDICINAL USES THEREOF” (priority 2013, published 2016)
